Experiment [1] has as its target Recombinant human Cbl-b (aa 36-427) (Homo sapiens, UniProt Q13191). The experiment is described as follows: Cbl-b Biochemical Assay (TR-FRET). The note with it: read-out: TR-FRET hCbl-b IC50.
Experiment [2] concerns the target T1, Recombinant human c-Cbl (aa 47-435) (Homo sapiens, UniProt P22681).
T1 sequence (P22681 47-435): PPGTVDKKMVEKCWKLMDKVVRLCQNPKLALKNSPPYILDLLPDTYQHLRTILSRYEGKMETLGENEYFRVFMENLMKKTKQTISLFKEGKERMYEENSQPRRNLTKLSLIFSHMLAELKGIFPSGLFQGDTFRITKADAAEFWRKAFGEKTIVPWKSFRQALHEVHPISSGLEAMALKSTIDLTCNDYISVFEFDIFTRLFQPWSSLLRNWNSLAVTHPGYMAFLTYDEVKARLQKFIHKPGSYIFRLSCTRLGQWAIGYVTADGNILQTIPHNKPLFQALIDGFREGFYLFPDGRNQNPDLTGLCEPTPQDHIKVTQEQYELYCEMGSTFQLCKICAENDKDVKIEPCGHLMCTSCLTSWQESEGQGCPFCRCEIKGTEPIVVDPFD
Nature of the experiment: c-Cbl Biochemical Assay (TR-FRET). The note with it: hc-Cbl Biochemical Assay (TR-FRET); read-out: TR-FRET hcCbl IC50. A general note: Time-resolved FRET reads energy transfer from a long-lived donor to a nearby acceptor.

The values below come from patent publication US20250163038A1, “CBL-B MODULATORS AND USES THEREOF” (Nimbus Clio, Inc., priority 2021, published 2025).

In general, IC50 refers to the concentration that gives 50% inhibition.

Recombinant human Cbl-b (aa 36-427), sequence (Q13191 36-427): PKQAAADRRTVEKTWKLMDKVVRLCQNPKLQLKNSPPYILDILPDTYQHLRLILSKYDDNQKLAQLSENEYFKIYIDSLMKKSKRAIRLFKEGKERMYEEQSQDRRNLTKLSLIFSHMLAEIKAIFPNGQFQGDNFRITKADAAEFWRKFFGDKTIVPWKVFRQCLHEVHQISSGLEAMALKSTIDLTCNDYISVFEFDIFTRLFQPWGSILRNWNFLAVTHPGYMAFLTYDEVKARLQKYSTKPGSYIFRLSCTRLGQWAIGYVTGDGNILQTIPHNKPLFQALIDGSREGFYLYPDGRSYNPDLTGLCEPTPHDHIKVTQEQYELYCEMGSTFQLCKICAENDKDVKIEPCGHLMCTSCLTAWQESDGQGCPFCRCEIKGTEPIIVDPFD

Turning to `Cn1cnnc1CC1(c2cccc(-c3nc4cc(CN5CC[C@H](O)C5)cc(C(F)(F)F)c4[nH]3)c2)COC1` [ACL-1, (S)-1-((2-(3-(3-((4-Methyl-4H-1,2,4-triazol-3-yl)methyl)oxetan-3-yl)phenyl)-7-(trifluoromethyl)-1H-benzo[d]imidazol-5-yl)methyl)pyrrolidin-3-ol], the figures for the IC50 in experiment [1] and in experiment [2] were 0.2 to 1 µM and 1 to 10 µM, respectively.
On to `Cn1cnnc1CC1(c2cccc(-c3nc4cccc(C(F)(F)F)c4o3)c2)COC1` [ACO-1, 2-(3-(3-((4-Methyl-4H-1,2,4-triazol-3-yl)methyl)oxetan-3-yl)phenyl)-7-(trifluoromethyl)benzo[d]oxazole], for which the half-inhibitory concentration (IC50) in experiment [1] lay in the range of 0.2 to 1 µM; in experiment [2] it was 10 to 50 µM.
On to `CCNc1cc(-c2c(-c3nncn3C)cnn2C)cc(-c2cc(C(F)(F)F)c[nH]c2=O)n1` [ACQ-3, 6-(Ethylamino)-4-(1-methyl-4-(4-methyl-4H-1,2,4-triazol-3-yl)-1H-pyrazol-5-yl)-5′-(trifluoromethyl)-[2,3′-bipyridin]-2′(1′H)-one], for which the values for the half-inhibitory concentration (IC50) in experiment [1] and in experiment [2] were 0.2 to 1 µM and 1 to 10 µM, respectively.
Taken in the same sequence, the figures for `Cn1cnnc1-c1cnn(C)c1-c1cc(Cl)nc(-c2cc(C(F)(F)F)c[nH]c2=O)c1` [ACR-3, 6-Chloro-4-(1-methyl-4-(4-methyl-4H-1,2,4-triazol-3-yl)-1H-pyrazol-5-yl)-5′-(trifluoromethyl)-[2,3′-bipyridin]-2′(1′H)-one] were 10 to 50 µM and 10 to 50 µM.
Taken in the same sequence, the figures for `CCNc1cc(-c2c(-c3nncn3C)cnn2C)cc(-c2nc3cccc(C(F)(F)F)c3s2)n1` [ACU-2, N-Ethyl-4-[2-methyl-4-(4-methyl-1,2,4-triazol-3-yl)-pyrazol-3-yl]-6-[7-(trifluoromethyl)-1,3-benzothiazol-2-yl]-pyridin-2-amine] were 10 to 50 µM and 10 to 50 µM.
The matching figures for `COC(=O)c1cc(C(F)(F)F)c2oc(-c3cccc([C@]4(c5nncn5C)C[C@@H](C)C4)c3)nc2c1` [ADC-3, Methyl 2-(3-((1s,3s)-3-methyl-1-(4-methyl-4H-1,2,4-triazol-3-yl)cyclobutyl)phenyl)-7-(trifluoromethyl)benzo[d]oxazole-5-carboxylate]: 1 to 10 µM and 10 to 50 µM.
Take `Cn1cnnc1[C@]1(c2cccc(-c3nc4cc(CO)cc(C(F)(F)F)c4o3)c2)C[C@H](C)C1` [ADD-1, (2-(3-((1s,3s)-3-Methyl-1-(4-methyl-4H-1,2,4-triazol-3-yl)cyclobutyl)phenyl)-7-(trifluoromethyl)benzo[d]oxazol-5-yl)methanol]: the 50% inhibitory concentration (IC50) is 0.2 to 1 µM in experiment [1] and 1 to 10 µM in experiment [2].
Taken in the same sequence, the figures for `COC(=O)c1ccc2oc(-c3cccc(-c4ccc(Cl)cc4-c4nncn4C)c3)nc2c1` [ADJ-2, Methyl 2-[4′-chloro-2′-(4-methyl-1,2,4-triazol-3-yl)-[1,1′-biphenyl]-3-yl]-1,3-benzoxazole-5-carboxylate] were 1 to 10 µM and 1 to 10 µM.
Taken in the same sequence, the figures for `Cn1cnnc1-c1cc(F)ccc1-c1cc(Cl)nc(-c2nc3cc(CO)cc(C(F)(F)F)c3[nH]2)c1` [ADX-3, (2-{6-Chloro-4-[4-fluoro-2-(4-methyl-1,2,4-triazol-3-yl)phenyl]pyridin-2-yl}-7-(trifluoromethyl)-1H-1,3-benzodiazol-5-yl)methanol] were 10 to 50 µM and 10 to 50 µM.
Taken in the same sequence, the figures for `COC(=O)c1cc(OC)c2oc(-c3cccc([C@]4(c5nncn5C)C[C@@H](C)C4)c3)nc2c1` [AEA-1, Methyl 7-methoxy-2-{3-[(1r,3s)-3-methyl-1-(4-methyl-1,2,4-triazol-3-yl)cyclobutyl]phenyl}-1,3-benzoxazole-5-carboxylate] were 10 to 50 µM and 10 to 50 µM.
In the case of `COc1cc(CO)cc2nc(-c3cccc([C@]4(c5nncn5C)C[C@@H](C)C4)c3)oc12` [AEB-1, (7-Methoxy-2-{3-[(1r,3s)-3-methyl-1-(4-methyl-1,2,4-triazol-3-yl)cyclobutyl]phenyl}-1,3-benzoxazol-5-yl)methanol], the IC50 in experiment [1] and in experiment [2] was 1 to 10 µM each time.
On to `COC(=O)c1ccc2[nH]c(-c3cc(-c4ccc(F)cc4-c4nncn4C)cc(C4CC4)n3)nc2c1` [AED-3, Methyl 2-(6-cyclopropyl-4-(4-fluoro-2-(4-methyl-4H-1,2,4-triazol-3-yl)phenyl)pyridin-2-yl)-1H-benzo[d]imidazole-5-carboxylate], for which the IC50 in experiment [1] and in experiment [2] was 10 to 50 µM each time.
In the case of `Cn1cnnc1-c1cc(F)ccc1-c1cc(-c2nc3cc(CO)ccc3[nH]2)nc(C2CC2)c1` [AEE-1, (2-(6-Cyclopropyl-4-(4-fluoro-2-(4-methyl-4H-1,2,4-triazol-3-yl)phenyl)pyridin-2-yl)-1H-benzo[d]imidazol-5-yl)methanol], the half-maximal inhibitory concentration (IC50) in experiment [1] and in experiment [2] was 1 to 10 µM throughout.
As for `CCNc1cc(-c2ccc(F)cc2-c2nncn2C)cc(-c2nc3cccc(C(F)(F)F)c3o2)n1` [AEJ-4, N-Ethyl-4-[4-fluoro-2-(4-methyl-1,2,4-triazol-3-yl)phenyl]-6-[7-(trifluoromethyl)-1,3-benzoxazol-2-yl]pyridin-2-amine], the IC50 in experiment [1] was 0.2 to 1 µM; in experiment [2], 1 to 10 µM.
Taken in the same sequence, the figures for `Cn1cnnc1-c1cc(F)ccc1-c1cccc(-c2nc3cc(CO)ccc3o2)c1` [AJ-3, (2-(4′-Fluoro-2′-(4-methyl-4H-1,2,4-triazol-3-yl)-[1,1′-biphenyl]-3-yl)benzo[d]oxazol-5-yl)methanol] were 10 to 50 µM and 10 to 50 µM.
Taken in the same sequence, the figures for `Cn1cnnc1-c1cc(F)ccc1-c1cccc(-c2nc3ccccc3o2)c1` [AR-2, 2-(4′-Fluoro-2′-(4-methyl-4H-1,2,4-triazol-3-yl)-[1,1′-biphenyl]-3-yl)benzo[d]oxazole] were 10 to 50 µM and 10 to 50 µM.
The matching figures for `COC(OC)c1ccc2oc(-c3cccc(-c4ccc(F)cc4-c4nncn4C)c3)nc2c1` [AT-1, 5-(Dimethoxymethyl)-2-(4′-fluoro-2′-(4-methyl-4H-1,2,4-triazol-3-yl)-[1,1′-biphenyl]-3-yl)benzo[d]oxazole]: 10 to 50 µM and 10 to 50 µM.
Turning to `Cn1cnnc1-c1cc(C#N)ccc1-c1cccc(-c2nc3cccc(C(F)(F)F)c3o2)c1` [AU-1, 2-(4-Methyl-4H-1,2,4-triazol-3-yl)-3′-(7-(trifluoromethyl)benzo[d]oxazol-2-yl)-[1,1′-biphenyl]-4-carbonitrile], the IC50 in experiment [1] is 0.2 to 1 µM; in experiment [2] it was 10 to 50 µM.
Taken in the same sequence, the figures for `CC(Cc1nncn1C)c1cccc(-c2nc3ccc(OCCN(C)C)c(C(F)(F)F)c3[nH]2)c1` (stereo not shown) [AW-4, N,N-dimethyl-2-((2-(3-(1-(4-methyl-4H-1,2,4-triazol-3-yl)propan-2-yl)phenyl)-7-(trifluoromethyl)-1H-benzo[d]imidazol-6-yl)oxy)ethan-1-amine] were 10 to 50 µM and 10 to 50 µM.
In the case of `CC(Cc1nncn1C)c1cccc(-c2nc3ccc(OCCN4CCCC4)c(C(F)(F)F)c3[nH]2)c1` (stereo not shown) [AX-3, 2-(3-(1-(4-Methyl-4H-1,2,4-triazol-3-yl)propan-2-yl)phenyl)-6-(2-(pyrrolidin-1-yl)ethoxy)-7-(trifluoromethyl)-1H-benzo[d]imidazole], the IC50 in experiment [1] and in experiment [2] was 10 to 50 µM throughout.
In the case of `CN(C)CCOc1ccc2nc(-c3cccc(C4(Cc5nncn5C)COC4)c3)[nH]c2c1C(F)(F)F` [AZ-1, N,N-Dimethyl-2-((2-(3-(3-((4-methyl-4H-1,2,4-triazol-3-yl)methyl)oxetan-3-yl)phenyl)-7-(trifluoromethyl)-1H-benzo[d]imidazol-6-yl)oxy)ethan-1-amine], the IC50 in experiment [1] and in experiment [2] was 10 to 50 µM throughout.
Regarding `Cn1cnnc1CC1(c2cccc(-c3nc4ccc(Br)c(C(F)(F)F)c4[nH]3)c2)COC1` [BA-1, 6-Bromo-2-(3-(3-((4-methyl-4H-1,2,4-triazol-3-yl)methyl)oxetan-3-yl)phenyl)-7-(trifluoromethyl)-1H-benzo[d]imidazole], the concentration for half-maximal inhibition (IC50) in experiment [1] was in the range of 1 to 10 µM; in experiment [2] it was 10 to 50 µM.
The matching figures for `Cn1cnnc1-c1ccccc1-c1cccc(-c2nc3ccc(N)c(C(F)(F)F)c3[nH]2)c1` [BE-2, 2-(2′-(4-Methyl-4H-1,2,4-triazol-3-yl)-[1,1′-biphenyl]-3-yl)-7-(trifluoromethyl)-1H-benzo[d]imidazol-6-amine]: 10 to 50 µM and 10 to 50 µM.
Taken in the same sequence, the figures for `Cn1cnnc1-c1ccccc1-c1cccc(-c2nc3ccc(OCCN4CCCC4)c(C(F)(F)F)c3[nH]2)c1` [BG-1, 2-(2′-(4-Methyl-4H-1,2,4-triazol-3-yl)-[1,1′-biphenyl]-3-yl)-6-(2-(pyrrolidine-1-yl)ethoxy)-7-(trifluoromethyl)-1H-benzo[d]imidazole] were 10 to 50 µM and 10 to 50 µM.
Taken in the same sequence, the figures for `CN1CC[C@@H](Oc2ccc3nc(-c4cccc(-c5ccccc5-c5nncn5C)c4)[nH]c3c2C(F)(F)F)C1` [BH-3, (R)-2-(2′-(4-Methyl-4H-1,2,4-triazol-3-yl)-[1,1′-biphenyl]-3-yl)-6-((1-methylpyrrolidin-3-yl)oxy)-7-(trifluoromethyl)-1H-benzo[d]imidazole] were 10 to 50 µM and 10 to 50 µM.
In the case of `Cn1cnnc1-c1cc(F)ccc1-c1cccc(-c2nc3cccc(C(F)(F)F)c3[nH]2)c1` [BI-1, 2-(4′-Fluoro-2′-(4-methyl-4H-1,2,4-triazol-3-yl)-[1,1′-biphenyl]-3-yl)-7-(trifluoromethyl)-1H-benzo[d]imidazole], the concentration for half-maximal inhibition (IC50) was 0.2 to 1 µM in experiment [1] and 10 to 50 µM in experiment [2].
